# Data published in patent publication US9386787B2, “Preparations for oral consumption” (Symrise AG, priority 2012, dated 2016).
# Marks after values point to notes of the source that are not given here.
# Assay: multiple time-intensity profiling (mTIP) of astringency, trained panel
# Assay type: in vivo
# Conditions: 750 mg/kg EGCG + 125 mg/kg ascorbic acid; for Reduction (%) of astringency: 300 μg/kg Frescolat ML vs without; for Astringency with Frescolat ML: 300 μg/kg Frescolat ML
# Method: In order to evaluate different attributes of a sample simultaneously over a particular period of time, the method of so-called “multiple time-intensity profiling” (mITP) was used. This descriptive method combines the advantages of the “dual-attribute time-intensity” (DATI) method, in which the intensities of two descriptors can be plotted on a two-dimensional plane, and the “time-intensity profiling” (TIP) method, in which more than two descriptors are evaluated in succession over time. In each mTIP test, trained panellists (n=15) are asked to take 2 mouthfuls (each 5 ml) of the sample to be evaluated, to wet the entire oral cavity therewith, and then to spit the sample out again. […] A parallel evaluation of more than two attributes is thus possible. The intensities are read after the first 10 seconds and then every 20 seconds over a period of 70 seconds. The data produced are analysed by means of Compusense® five and represented graphically as a time-intensity curve. In order to show the astringency-masking effect of L-lactic acid L-menthyl ester (Frescolat ML), the panel was trained inter alia with an aqueous test solution comprising 750 mg/kg of epigallocatechin gallate and 125 mg/kg of ascorbic acid. The panellists were asked to evaluate the test solution in respect of its bitterness and astringency using the above-described method. In a subsequent test, the two descriptors were evaluated on the one hand for the above-described test solution and on the other hand for the test solution plus 300 μg/kg of Frescolat ML. The results of both time-intensity curves were evaluated statistically and compared with one another in order to determine an astringency-masking effect of Frescolat® ML. For the significance calculation, the Student t-test, duplicated with paired random samples, was used.
smiles,measurement,setting,value
"CC(C)[C@@H]1CC[C@@H](C)C[C@H]1OC(=O)[C@H](C)O [Frescolat ML, L-lactic acid L-menthyl ester]",Reduction (%) of astringency,time 0 sec,−0.49%
same,Reduction (%) of astringency,time 10 sec,−14.29%
same,Reduction (%) of astringency,"time 30 sec, significant (p < 0.1)",−20.58* %
same,Reduction (%) of astringency,"time 50 sec, significant (p < 0.1)",−22.24* %
same,Reduction (%) of astringency,time 70 sec,−17.82%
same,Astringency with Frescolat ML,time 0 sec,4.81
same,Astringency with Frescolat ML,time 10 sec,4.11
same,Astringency with Frescolat ML,time 30 sec,3.38
same,Astringency with Frescolat ML,time 50 sec,2.58
same,Astringency with Frescolat ML,time 70 sec,2.04
